{
  "source": "patent US10172835B2",
  "about": "“Anticancer agent composition” (J-Pharma Co., Ltd., priority 2014, dated 2019)",
  "key": {"KO99L cells [1]": {"system": "KO99L cells", "experiment": "Annexin-V / DAPI apoptosis assay, KO99L cells", "assay_type": "cell-based, murine", "details": "48 hr", "method": "Apoptosis assessment was performed by measuring phosphatidyl-serine membrane redistribution via annexin-V-FITC (Invitrogen). Cells (5.0±0.1×10^5 per well; 2.0 mL) were incubated with effectors, and re-suspended in staining solution (110 μL; Annexin-V ( 1/10) and incubated in the dark (15 min, RT). […] Basal apoptosis and necrosis were determined on control untreated cells."}, "[2]": {"system": "Panc-1 cell derived from human pancreatic cancer", "experiment": "MTT proliferation of Panc-1 cells", "assay_type": "cell-based", "details": "Panc-1, culture 5 days", "method": "(§1) The culture in the absence of COM-JP and in the presence of COM-JP with different concentrations in the culture medium of each cancer cell was continued for 5 days. Proliferation activity of the cell on each elapsed day was measured by a MTT method."}, "LC3": {"system": "LC3", "experiment": "Western blot of LC3 processing (autophagy), KO99L cells", "assay_type": "cell-based, murine", "details": "10.0 μM", "method": "(§2) Cell extracts were prepared using a cell lysis buffer (50 mM HEPES, pH 7.4, 150 mM NaCl, 20 mM EDTA, 100 mM NaF, 10 mM Na3VO4, 0.5% nonyl phenoxypolyethoxylethanol (NP40) supplemented with a cocktail of protease inhibitors. After SDS-PAGE separation and transfer to nitrocellulose immunoblotting was performed using the following antibodies against: Akt (Cell Signaling Technologies, #9272), CHOP (#2895), cleaved caspase 3 (#9664), c-Myc (#9402), eIF2a (#9721), 4EBP1 (#9644), LC3A/B (#12741), PARP (#9542), pJnk (T183/Y185) (#9251), pSer235-236-S6RP (#4856), pSer473-Akt (#9271), pSer65-4EBP1 (#9451) and S6RP (#2217); Bax (Sigma-Aldrich, B8429); PUMA (Abcam, ab54288); Bak (Millipore, 06536); ATF4 (Santa Cruz Biotechnologies, sc200), GADD34 (sc8327), Hsp60 (sc-1722), Hsp90 (sc-13119) and XBP1 (sc-7160); ATF6 (Imgenex, IMG-273)."}, "KO99-RJ cells": {"system": "KO99-RJ cells", "experiment": "WST-1 cell viability of COMPOUND-JP-resistant KO99-RJ cells", "assay_type": "cell-based, murine", "details": "Mus musculus, 48 h, read-out: decrease in cell viability", "method": "(§3) Two different assays were employed: i) In a 96-well plate format, cells (4.0±0.1×10^4 per well; 100 μL) were incubated with effectors (48 h, 37° C.; n=4 per experiment) and then WST-1 reagent (10 μL; Roche Diagnostics) added to each well of 96-well plates, incubated, and the formazan production was measured at 490 nm; and ii) cells (2.0±0.1×10^4 per well; 100 μL) were incubated with effectors (48 h, 37° C.; n=4 per experiment) and then bromodeoxyuridine reagent (10 μL/well; Roche Diagnostics) was added to each well and incubated (8 h, 37° C.). The cells were then fixed, denatured and incubated with anti-BrdU-conjugated with peroxidase (POD) antibody (100 μL/well). Colorimetric substrate (TMB: tetramethyl-benzidine; 100 μL/well) was added and BrdU incorporation quantified via optical density measurement (450 nm) which corresponds to DNA synthesis and proliferating cells."}, "mTOR (phospho-S6RP)": {"system": "mTOR (phospho-S6RP)", "experiment": "Phospho-Flow staining of phospho-S6RP in primary T-ALL samples", "assay_type": "cell-based, human", "details": "two primary T-ALL samples, 10 μM", "method": "Cells (1.0±0.1×10^6 per well; 1 mL) were incubated with various effectors (24 h, 37° C.) and then permeabilized with Cytofix/Cytoperm buffer (100 μL, 30 min, 4° C.) and then washed with PermWash (BD Biosciences) and stained with phospho-Ser235/236-S6RP antibody (30 min, 4° C.). After an additional PermWash, cells were then stained with a secondary anti-rabbit-alexaF 488 (20 μg/mL; Life Technologies) for (30 min, 4° C.). Cells were then washed in PermWash and re-suspended in staining buffer (PBS+0.1% bovine serum albumin+1.0% paraformaldehyde) and analyzed by flow cytometry on a MacsQuant Analyser (Miltenyi Biotech)."}, "[3]": {"system": "normal resting or activated human PBL cells", "experiment": "Cell death analysis of resting or activated human PBL", "assay_type": "cell-based"}, "primary tPTEN−/− cells": {"system": "primary tPTEN−/− cells", "experiment": "Cell death of primary tPTEN−/− lines, PI staining and Facs", "assay_type": "cell-based, murine", "details": "2.5-20.0 μM, 48 h, five primary tumors"}, "[4]": {"system": "Unfolded Protein Response components", "experiment": "Western blot of ISR/UPR components, KO99L cells", "assay_type": "cell-based, murine", "details": "10.0 μM", "method": "as §2"}, "Jurkat T-ALL line": {"system": "Jurkat T-ALL line", "experiment": "Cell proliferation of Jurkat human T-ALL cells", "assay_type": "cell-based", "method": "as §3"}, "KO99L cells [5]": {"system": "KO99L cells", "experiment": "BrdU incorporation Elisa (proliferation) on KO99L cells", "assay_type": "cell-based, murine", "details": "10.0 μM, after 48 h", "method": "as §3"}, "primary T-ALL cells": {"system": "primary T-ALL cells", "experiment": "Cell viability of human T-ALL primary samples", "assay_type": "cell-based", "details": "primary T-ALL cells from patients", "method": "Informed consent was obtained according to institutional guidelines. Heparin-treated blood was obtained from three T-ALL patients and from two healthy donors. Patient lymphoblasts were isolated within 24 hours post collection using Ficoll-Paque PLUS density gradient following vendor recommended procedures (GE Healthcare Life Sciences).\nas §3"}, "[6]": {"system": "44As3-11 cell derived from human scirrhous stomach cancer", "experiment": "MTT proliferation of 44As3-11 cells", "assay_type": "cell-based", "details": "44As3-11, culture 5 days", "method": "as §1"}, "Bcl2 family members": {"system": "Bcl2 family members", "experiment": "Western blot of Bcl2 family members, KO99L cells", "assay_type": "cell-based, murine", "details": "10.0 μM, starting at 6.0 h", "method": "as §2"}, "KO99-S cells": {"system": "KO99-S cells", "experiment": "Cell death (PI staining) of parental KO99-S cells", "assay_type": "cell-based, murine", "details": "48 h"}, "mTORC1 / Akt activation": {"system": "mTORC1 / Akt activation", "experiment": "Western blot of S6RP, 4EBP1 and Akt phosphorylation, KO99L cells", "assay_type": "cell-based, murine", "details": "2.0-24 h; COMPOUND-JP 10.0 μM; MK-2206 5.0 μM; KU0063794 5.0 μM; rapamycin 10.0 nM; L-Asp, Erw 2.5 units/ml; velcade at 24 h"}, "caspase 3": {"system": "caspase 3", "experiment": "Western blot of caspase 3 activation and PARP cleavage in primary tPTEN−/− tumor cells (KO#732)", "assay_type": "cell-based, murine", "details": "primary KO#732 cells; COMPOUND-JP 5.0, 10.0 μM; PI-103 10.0 μM; rapamycin 10.0 nM; 2.0-18.0 h", "method": "as §2"}, "HT-29 colon cancer cells": {"system": "HT-29 colon cancer cells", "details": "Reference 43; cited from earlier work"}},
  "data": [
    {"smiles": "Nc1cc(COc2c(Cl)cc(C[C@H](N)C(=O)O)cc2Cl)c2oc(-c3ccccc3)nc2c1", "note": "[COMPOUND-JP, O-(5-amino-2-phenylbenzoxazole-7-yl)methyl-3,5-dichloro-L-tyrosine]", "values": [
      {"measurement": "levels of apoptosis (annexin-V+ and annexin-V+/DAPI+) compared to control", "setting": "KO99L cells [1]; 10.0 μM", "result": 2.8, "unit": "fold"},
      {"measurement": "levels of apoptosis (annexin-V+ and annexin-V+/DAPI+) compared to control", "setting": "KO99L cells [1]; 20.0 μM", "result": 3.8, "unit": "fold"},
      {"measurement": "proliferation activity", "setting": "[2]", "result": "dose-dependent decrease"},
      {"measurement": "LC3-II accumulation", "setting": "LC3", "result": "stimulated LC3-II accumulation"},
      {"measurement": "cytotoxicity at 40 µM", "setting": "KO99-RJ cells", "result": "~40", "unit": "%"},
      {"measurement": "phospho-S6RP by phospho-Flow cytometry", "setting": "mTOR (phospho-S6RP)", "result": "mTOR inhibitory effect"},
      {"measurement": "cell death", "setting": "[3]", "result": "did not induce cell death"},
      {"measurement": "cell death in primary tPTEN−/− cells", "setting": "primary tPTEN−/− cells", "result": "dose dependent"},
      {"measurement": "GADD34", "setting": "[4]", "result": "expression"},
      {"measurement": "full length XBP1", "setting": "[4]", "result": "gradually disappeared"},
      {"measurement": "p38 stress pathway", "setting": "[4]; 2.0 h", "result": "strongly activated"},
      {"measurement": "ATF4", "setting": "[4]; 6.0 h", "result": "induction"},
      {"measurement": "ATF6", "setting": "[4]; 18.0 h", "result": "induction"},
      {"measurement": "eIF2 phosphorylation", "setting": "[4]; 24 h", "result": "De-phosphorylation"},
      {"measurement": "proliferation", "setting": "Jurkat T-ALL line", "result": "alter"},
      {"measurement": "diminished cell cycling (proliferation)", "setting": "KO99L cells [5]", "result": 75, "unit": "%"},
      {"measurement": "cell viability (COMPOUND-JP sensitivity)", "setting": "primary T-ALL cells", "result": "concentration dependent"},
      {"measurement": "proliferation activity", "setting": "[6]", "result": "dose-dependent decrease"},
      {"measurement": "protein levels of four pro-apoptotic members: Bak, Bax, PUMA and Bim", "setting": "Bcl2 family members", "result": "increased protein levels"},
      {"measurement": "cell death", "setting": "KO99-S cells", "result": "concentration dependent cell death"},
      {"measurement": "4EBP1 phosphorylation", "setting": "mTORC1 / Akt activation", "result": "no effect"},
      {"measurement": "Akt phosphorylation (serine 473) / activation", "setting": "mTORC1 / Akt activation", "result": "interfered with Akt activation"},
      {"measurement": "S6RP phosphorylation (mTORC1 activation)", "setting": "mTORC1 / Akt activation", "result": "affect mTORC1 activation as early as 2.0 h"},
      {"measurement": "caspase 3 processing and PARP cleavage (apoptosis)", "setting": "caspase 3", "result": "induced caspase 3 processing and PARP cleavage"},
      {"measurement": "growth of HT-29 colon cancer cells transplanted in nude mice", "setting": "HT-29 colon cancer cells", "result": "reduce the growth"}
    ]}
  ]
}
